# Laboratory results: PMC7321301, “Characteristics of New Peptides GQLGEHGGAGMG, GEHGGAGMGGGQFQPV, EQGFLPGPEESGR, RLARAGLAQ, YGNPVGGVGH, and GNPVGGVGHGTTGT as Inhibitors of Enzymes Involved in Metabolic Syndrome and Antimicrobial Potential” (Molecules, 2020)
# pIC50: −log10 of the molar value. Read-outs that look alike come from different tables or passages of the source. No end group written: not given here.
# Columns and labels:
# Format in all cases: biochemical
# COX-2 = biological target: T1, COX-2 (Homo sapiens, UniProt P35354); test: COX-2 inhibitory activity (COX Activity Assay kit) and kinetics; details: mean ± SD, triplicate
# T1 construct: purchased Cayman Chemical 760151
# T1 sequence (P35354 18-604): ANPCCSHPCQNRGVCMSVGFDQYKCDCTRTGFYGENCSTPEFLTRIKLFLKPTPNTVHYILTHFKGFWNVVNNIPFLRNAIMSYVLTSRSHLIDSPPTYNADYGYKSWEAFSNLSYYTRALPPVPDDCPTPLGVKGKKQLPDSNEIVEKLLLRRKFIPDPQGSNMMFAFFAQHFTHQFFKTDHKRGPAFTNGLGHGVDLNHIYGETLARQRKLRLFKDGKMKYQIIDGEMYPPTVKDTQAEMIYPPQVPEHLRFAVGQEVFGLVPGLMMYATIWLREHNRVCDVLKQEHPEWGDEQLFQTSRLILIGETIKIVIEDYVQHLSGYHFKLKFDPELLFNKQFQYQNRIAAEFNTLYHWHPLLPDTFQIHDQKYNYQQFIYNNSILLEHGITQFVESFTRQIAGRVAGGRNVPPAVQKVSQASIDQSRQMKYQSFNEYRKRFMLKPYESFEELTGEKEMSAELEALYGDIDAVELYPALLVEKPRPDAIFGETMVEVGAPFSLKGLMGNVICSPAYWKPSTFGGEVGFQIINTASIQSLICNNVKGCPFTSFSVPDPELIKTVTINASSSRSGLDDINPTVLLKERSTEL
# Protocol: (§1) For all inhibitory activity, IC50 was calculated. The IC50 value defined as the concentration of the extract inhibiting 50% of the enzyme activity was determined by measuring the enzyme inhibitory activity and peptide contents in each sample. The IC50 value was calculated from the plotted graph of the inhibition activity for the five different peptide concentrations.
# (§2) The effect of the peptide on COX-1 and COX-2 was measured using the COX Activity Assay kit from Cayman Chemical (Item No. 760151, Ann Arbor, MI, USA). COX activity was determined according to the instructions provided with the kit. The enzyme activity was assayed by calorimetric measurement of the appearance of oxidized N,N,N′,N′-Tetramethyl-p-phenylenediamine (TMPD) at 590 nm using BioTek Microplate Readers (Epoch™ 2 BioTek, Bad Friedrichshall, Germany).
# (§3) Substrate solutions (5.0, 10.0, 15.0, and 20.0 mM) were prepared and used to determine the Michaelis constant (Km), the inhibition constant (Ki), and the maximum velocity (Vmax) of enzymes. The kinetic parameters were evaluated by Lineweaver–Burk’s method. The reaction conditions were the same as in the enzyme inhibitory activity assay.
# LOX = LOX (Glycine max, UniProt P08170); details: read-out: IC50 LOX
# Chain of LOX (P08170 whole entry): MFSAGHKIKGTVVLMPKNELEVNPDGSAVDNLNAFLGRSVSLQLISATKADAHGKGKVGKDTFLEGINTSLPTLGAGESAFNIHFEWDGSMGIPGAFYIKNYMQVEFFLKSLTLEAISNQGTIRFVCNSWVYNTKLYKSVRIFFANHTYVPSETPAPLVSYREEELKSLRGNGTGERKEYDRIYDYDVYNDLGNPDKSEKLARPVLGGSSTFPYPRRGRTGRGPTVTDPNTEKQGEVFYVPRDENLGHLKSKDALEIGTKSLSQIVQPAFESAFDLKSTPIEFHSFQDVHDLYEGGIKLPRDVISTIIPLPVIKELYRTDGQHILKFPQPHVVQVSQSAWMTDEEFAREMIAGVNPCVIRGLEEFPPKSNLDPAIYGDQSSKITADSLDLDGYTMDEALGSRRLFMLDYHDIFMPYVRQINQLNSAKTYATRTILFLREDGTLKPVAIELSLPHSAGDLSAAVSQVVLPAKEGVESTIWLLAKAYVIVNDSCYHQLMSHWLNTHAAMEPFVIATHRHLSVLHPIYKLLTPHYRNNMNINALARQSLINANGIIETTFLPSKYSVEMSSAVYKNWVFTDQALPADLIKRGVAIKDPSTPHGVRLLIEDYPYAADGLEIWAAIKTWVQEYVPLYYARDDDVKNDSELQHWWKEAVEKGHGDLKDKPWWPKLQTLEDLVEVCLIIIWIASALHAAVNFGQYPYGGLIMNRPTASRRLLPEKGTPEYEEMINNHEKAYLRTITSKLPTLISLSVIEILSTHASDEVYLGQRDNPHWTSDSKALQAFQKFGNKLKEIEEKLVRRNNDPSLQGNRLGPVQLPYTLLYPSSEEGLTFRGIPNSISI
# Protocol: as §1
# The LOX inhibitory assay was carried out with the method described by Szymanowska et al.. A solution of pure linoleic acid was used as a substrate. First, 157.2 µl of pure linoleic acid was mixed with 157.2 µL of Tween-20 and 10 mL of deionized water. The substrate was clarified with 1 mL of 1 M NaOH and M/15 phosphate buffer pH = 7.0 was added to the volume of 200 mL. The enzymatic reaction mixture contained 297 µL of M/15 phosphate buffer pH = 7, 2 µl of the substrate solution, and 1 µL of the enzyme solution. A mixture of 298 µl of phosphate buffer (pH 7.0) and 2 µL of the substrate solution was used to calibrate the spectrophotometer. Changes in absorbance at 234 nm were measured using BioTek Microplate Readers.
# as §3
# COX-1 = biological target: T2, COX-1 (Ovis aries, UniProt P05979); test: COX-1 inhibitory activity (COX Activity Assay kit) and kinetics
# T2 sequence (P05979 25-600): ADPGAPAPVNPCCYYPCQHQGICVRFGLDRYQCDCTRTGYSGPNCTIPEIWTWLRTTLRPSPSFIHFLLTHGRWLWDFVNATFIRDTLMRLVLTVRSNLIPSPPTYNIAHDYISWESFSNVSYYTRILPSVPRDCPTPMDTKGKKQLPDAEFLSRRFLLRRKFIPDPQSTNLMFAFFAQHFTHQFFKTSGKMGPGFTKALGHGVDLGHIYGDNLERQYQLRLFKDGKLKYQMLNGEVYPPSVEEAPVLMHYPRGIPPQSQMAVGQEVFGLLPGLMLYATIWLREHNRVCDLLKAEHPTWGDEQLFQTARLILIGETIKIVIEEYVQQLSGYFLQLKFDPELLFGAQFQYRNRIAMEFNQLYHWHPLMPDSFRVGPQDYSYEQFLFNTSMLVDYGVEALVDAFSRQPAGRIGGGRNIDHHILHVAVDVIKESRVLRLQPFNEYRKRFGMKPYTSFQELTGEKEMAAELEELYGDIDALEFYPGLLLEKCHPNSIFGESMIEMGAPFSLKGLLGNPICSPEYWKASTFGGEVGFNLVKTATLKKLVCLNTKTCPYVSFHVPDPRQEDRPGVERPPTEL
# Protocol: as §2, with “For all inhibitory activity, IC50 was calculated. […] The IC50 value was calculated from the plotted graph of the inhibition activity for the five different peptide concentrations. The effect” for “The effect”, “Friedrichshall, Germany). […] The kinetic parameters were evaluated by Lineweaver–Burk’s method. The reaction conditions were the same as in the enzyme inhibitory activity assay.” for “Friedrichshall, Germany).”
Sequence,pIC50 (COX-2),pIC50 (LOX),pIC50 (COX-1),"pIC50 (LOX; mean ± SD, triplicate)"
"EQGFLPGPEESGR [ER-13, EQGFLPGPEESGR]",5.51,4.22,5.32,
"YGNPVGGVGH [YH-10, YGNPVGGVGH]",4.79,3.90,4.76,
"GQLGEHGGAGMG [GG-12, GQLGEHGGAGMG]",4.80,3.88,5.15,
"GNPVGGVGHGTTGT [GT-14, GNPVGGVGHGTTGT]",5.44,3.81,4.91,
"GEHGGAGMGGGQFQPV [GV-16, GEHGGAGMGGGQFQPV]",4.52,4.16,5.10,
"RLARAGLAQ [RQ-9, RLARAGLAQ]",5.30,,6.49,3.69
